Experimental data: article PMC11995724, “Antibiotic target discovery by integrated phenotypic and activity-based profiling of electrophilic fragments” (Cell chemical biology, 2025)

Test: in vitro
Conditions: human, hek293t cells

Row | Structure (SMILES) | viability at 48 h, 25 µM [%]
1 | C=CC(=O)NC(Cn1ccccc1=O)c1ccccc1 (stereo not drawn) [2-B21, N-[2-(2-oxo-1,2-dihydropyridin-1-yl)-1-phenylethyl]prop-2-enamide] | 72.3
2 | C=CC(=O)N(C)CC(=O)N1CCC(C)(c2nc(C)no2)CC1 [2-B22, N-methyl-N-{2-[4-methyl-4-(3-methyl-1,2,4-oxadiazol-5-yl)piperidin-1-yl]-2-oxoethyl}prop-2-enamide] | 57.9
3 | C=CC(=O)N1CCCC(n2cncn2)C1 (stereo not drawn) [2-C03, 1-[3-(1H-1,2,4-triazol-1-yl)piperidin-1-yl]prop-2-en-1-one] | 90.2
4 | C=CC(=O)NCCC(=O)N1CCc2ncncc2C1 [2-C04, N-(3-oxo-3-{5H,6H,7H,8H-pyrido[4,3-d]pyrimidin-6-yl}propyl)prop-2-enamide] | 93.3
5 | C=CC(=O)NCCN1C(=O)SC(=Cc2ccc(Cl)cc2)C1=O [2-C05, N-(2-{5-[(4-chlorophenyl)methylidene]-2,4-dioxo-1,3-thiazolidin-3-yl}ethyl)prop-2-enamide] | 87.2
6 | C=CC(=O)N1CCOC2(CCS(=O)(=O)C2)C1 (stereo not drawn) [2-C06, 9-(prop-2-enoyl)-6-oxa-2lambda6-thia-9-azaspiro[4.5]decane-2,2-dione] | 101
7 | C=CC(=O)N(Cc1cc(Cl)ccc1OC)C1CCCOCC1 (stereo not drawn) [2-C07, N-[(5-chloro-2-methoxyphenyl)methyl]-N-(oxepan-4-yl)prop-2-enamide] | 95.3
8 | C=CC(=O)Nc1ccc(S(C)(=O)=O)cc1OCC [2-C08, N-(2-ethoxy-4-methanesulfonylphenyl)prop-2-enamide] | 0.998
9 | C=CC(=O)NCc1csc(C(C)(C)C)n1 [2-C09, N-[(2-tert-butyl-1,3-thiazol-4-yl)methyl]prop-2-enamide] | 86.1
10 | C=CC(=O)N1CCOCC2(CCOCC2)C1 [2-C10, 1-{3,8-dioxa-11-azaspiro[5.6]dodecan-11-yl}prop-2-en-1-one] | 85.4
11 | C=CC(=O)NC(Cn1cnc2ccccc21)c1ccc(F)cc1 (stereo not drawn) [2-C11, N-[2-(1H-1,3-benzodiazol-1-yl)-1-(4-fluorophenyl)ethyl]prop-2-enamide] | 90.5
12 | C=CC(=O)NCCC(=O)N1CCCC1c1cc(C)on1 (stereo not drawn) [2-C12, N-{3-[2-(5-methyl-1,2-oxazol-3-yl)pyrrolidin-1-yl]-3-oxopropyl}prop-2-enamide] | 81.3
13 | C=CC(=O)N(Cc1cnn(C(C)C)c1)c1ccc2nc(C)oc2c1 [2-C13, N-(2-methyl-1,3-benzoxazol-6-yl)-N-{[1-(propan-2-yl)-1H-pyrazol-4-yl]methyl}prop-2-enamide] | 185
14 | C=CC(=O)NC(c1noc(O)n1)C(C)(C)C (stereo not drawn) [2-C14, N-[1-(5-hydroxy-1,2,4-oxadiazol-3-yl)-2,2-dimethylpropyl]prop-2-enamide] | 96.4
15 | C=CC(=O)Nc1cc(C)nn1-c1ccccc1F [2-C15, N-[1-(2-fluorophenyl)-3-methyl-1H-pyrazol-5-yl]prop-2-enamide] | 180
16 | C=CC(=O)N1CCC(O)(C(F)(F)C(N)=O)C1 (stereo not drawn) [2-C16, 2,2-difluoro-2-[3-hydroxy-1-(prop-2-enoyl)pyrrolidin-3-yl]acetamide] | 98.2
17 | C=CC(=O)N1CCC(Cn2nc(C)cc2C)CC1 [2-C17, 1-{4-[(3,5-dimethyl-1H-pyrazol-1-yl)methyl]piperidin-1-yl}prop-2-en-1-one] | 182
18 | C=CC(=O)NCc1cc(-c2ccccc2OC)no1 [2-C18, N-{[3-(2-methoxyphenyl)-1,2-oxazol-5-yl]methyl}prop-2-enamide] | 72.8

Row | Structure (SMILES) | viability at 48 h, 25 µM [%]
19 | C=CC(=O)N1CCC(Cc2ccnn2C)CC1 [2-C19, 1-{4-[(1-methyl-1H-pyrazol-5-yl)methyl]piperidin-1-yl}prop-2-en-1-one] | 74.8
20 | C=CC(=O)Nc1ccc(C(=O)N2CCCCC2c2noc(C)n2)cc1 (stereo not drawn) [2-C20, N-{4-[2-(5-methyl-1,2,4-oxadiazol-3-yl)piperidine-1-carbonyl]phenyl}prop-2-enamide] | 77.3
21 | C=CC(=O)N1CCCC1c1nc(N(C)C)no1 (stereo not drawn) [2-C21, 1-{2-[3-(dimethylamino)-1,2,4-oxadiazol-5-yl]pyrrolidin-1-yl}prop-2-en-1-one] | 191
22 | C=CC(=O)Nc1cc(C(=O)CC)ccc1F [2-C22, N-(2-fluoro-5-propanoylphenyl)prop-2-enamide] | 84.8
23 | C=CC(=O)NCC(C)Cn1ccc(C)n1 (stereo not drawn) [2-D03, N-[2-methyl-3-(3-methyl-1H-pyrazol-1-yl)propyl]prop-2-enamide] | 99.9
24 | C=CC(=O)N1CCC(C(=O)NCCc2c(C)n[nH]c2C)CC1 [2-D04, N-[2-(3,5-dimethyl-1H-pyrazol-4-yl)ethyl]-1-(prop-2-enoyl)piperidine-4-carboxamide] | 88.7
25 | C=CC(=O)NCCc1nc(C)cs1 [2-D05, N-[2-(4-methyl-1,3-thiazol-2-yl)ethyl]prop-2-enamide] | 70.3
26 | C=CC(=O)N1CCC(C(=O)N(C)Cc2ccc([S+](C)[O-])cc2)CC1 (stereo not drawn) [2-D06, N-[(4-methanesulfinylphenyl)methyl]-N-methyl-1-(prop-2-enoyl)piperidine-4-carboxamide] | 76.4
27 | C=CC(=O)NC1(c2nccc(C(F)(F)F)n2)CC1 [2-D07, N-{1-[4-(trifluoromethyl)pyrimidin-2-yl]cyclopropyl}prop-2-enamide] | 74.9
28 | C=CC(=O)N1CCC(C(=O)Nc2ccc(N(C)C(C)=O)cc2)CC1 [2-D08, N-[4-(N-methylacetamido)phenyl]-1-(prop-2-enoyl)piperidine-4-carboxamide] | 81.5
29 | C=CC(=O)N(C)Cc1cncn1C [2-D09, N-methyl-N-[(1-methyl-1H-imidazol-5-yl)methyl]prop-2-enamide] | 61.2
30 | C=CC(=O)N1CCC(C(=O)N2CCC(C(=O)NC3CC3)CC2)CC1 [2-D10, N-cyclopropyl-1-[1-(prop-2-enoyl)piperidine-4-carbonyl]piperidine-4-carboxamide] | 76.9
31 | C=CC(=O)NCc1cnc2ccsc2c1 [2-D11, N-({thieno[3,2-b]pyridin-6-yl}methyl)prop-2-enamide] | 74.3
32 | C=CC(=O)N1CCC(C(=O)N2CCC[C@H]2c2ncn[nH]2)CC1 [2-D12, 1-{4-[(2S)-2-(1H-1,2,4-triazol-5-yl)pyrrolidine-1-carbonyl]piperidin-1-yl}prop-2-en-1-one] | 81.3
33 | C=CC(=O)N(Cc1cn(CC)nc1C)C1CC1 [2-D13, N-cyclopropyl-N-[(1-ethyl-3-methyl-1H-pyrazol-4-yl)methyl]prop-2-enamide] | 76.3
34 | C=CC(=O)N1CCC(C(=O)NCC(C)(C)C2(O)CCCC2)CC1 [2-D14, N-[2-(1-hydroxycyclopentyl)-2-methylpropyl]-1-(prop-2-enoyl)piperidine-4-carboxamide] | 76.9
35 | C=CC(=O)NC1(C(N)=O)Cc2ccccc2C1 [2-D15, 2-(prop-2-enamido)-2,3-dihydro-1H-indene-2-carboxamide] | 69.7
36 | C=CC(=O)Nc1ccc(C(=O)N2CCC3(CC2)OCCCO3)cc1 [2-D16, N-(4-{1,5-dioxa-9-azaspiro[5.5]undecane-9-carbonyl}phenyl)prop-2-enamide] | 49.1
